According to US4402961A, “Derivatives of 1-(2-,3- or 4-quinolyl)-2- or -3-(2- or 3-piperidyl or -pyrrolidinyl) ethanone or propanone, and their utilization as antiarrhythmics, anticonvulsivants and for the treatment of anxiety” (Pharmindustrie, priority 1980, dated 1983):

The molecules below were run on ventricular arrhythmias caused by the aconitine (assay: aconitine test on the rat (antiarrhythmic activity)). Details: iv, read-out: ED50, dose which increases by 50% the time of perfusion of the aconitine versus control animals.
Type: in vivo
Experimental: The principle of the method rests on the time of induction of the ventricular arrhythmias caused by the aconitine which is slowly perfused in rats. An antiarrhythmic substance retards the appearance of the arrhythmias and the delay is proportional to the activity of the molecule.
Groups of 5 male rats are used. An individual annesthesia is realized (10% urethane: 1 g/kg/ip) in order to permit a catheterization of the vein of the penis. The electrocardiogram is recorded. At time T=O the substance studied is injected in the form of an aqueous solution, at the rate of 2.5 ml of solution per kg in 30 seconds. At time T=90 seconds, say 1 minute after the end of the injection, the aconitine is perfused at the rate of 20 μg per minute, until the appearance of extra […] systoles. The time of perfusion of the aconitine is noted.
The results are expressed by ED50, which is the dose of product in mg/kg which increases by 50% the time of perfusion of the aconitine in comparison with the perfusion time of aconitine for the control animals.

**Q.** How did the ED50 turn out when `c1ccc(-c2cc(CCCC3CCCNC3)c3ccccc3n2)cc1` (stereo not drawn) [Example 14, 2-phenyl-4-[3-(3-piperidyl)-propyl]-quinoline] was run?
**A.** 2.2 mg/kg

**Q.** With `O=C(CC1CCCNC1)c1cc(-c2ccccc2)nc2ccccc12` (stereo not drawn) [Example 3, 1-[4-(2-phenyl)quinolyl]-2-(3-piperidyl)-ethanone] as the molecule, how does the ED50 read?
**A.** 2.8 mg/kg

**Q.** How did the ED50 turn out when `COc1ccc2nccc(CCCC3CCCNC3)c2c1` (stereo not drawn) [Example 11, 6-methoxy-4-[3-(3-piperidyl)-propyl]-quinoline] was run?
**A.** 7.8 mg/kg

Each molecule was assayed against Cerebral Binding Sites of the Benzodiazepines (assay: not given). Details: not given.

**Q.** With `O=C(CCC1CCCNC1)c1cc(-c2ccccc2)nc2ccccc12` (stereo not drawn) [Example 4, 1-[4-(2-phenyl)quinolyl]-3-(3-piperidyl)-1-propanone] as the molecule, how does the Ki read?
**A.** 0.8 µM

**Q.** Which Ki does the source give for `c1ccc(-c2cc(CCCC3CCCNC3)c3ccccc3n2)cc1` (stereo not drawn) [Example 14, 2-phenyl-4-[3-(3-piperidyl)-propyl]-quinoline] here?
**A.** 1 µM

**Q.** For `Clc1ccc(-c2cc(CCC3CCCNC3)c3ccccc3n2)cc1` (stereo not drawn) [Example 20, 2-(4-chloro-phenyl)-4-[2-(3-piperidyl)-ethyl]-quinoline], which Ki is on record?
**A.** 1.6 µM

**Q.** With `COc1ccc2nccc(CCCC3CCCNC3)c2c1` (stereo not drawn) [Example 11, 6-methoxy-4-[3-(3-piperidyl)-propyl]-quinoline] as the molecule, how does the Ki read?
**A.** 5.5 µM

**Q.** For `CN1CCCC(CCc2cc(-c3ccccc3)nc3ccccc23)C1` (stereo not drawn) [Example 23, 4-{2-[3-(1-methyl)piperidyl]-ethyl}-2-phenyl-quinoline], which Ki is on record?
**A.** 0.9 µM

**Q.** `c1ccc(-c2cc(CCC3CCCNC3)c3ccccc3n2)cc1` (stereo not drawn) [Example 13, 2-phenyl-4-[2-(3-piperidyl)-ethyl]-quinoline] was tested. Which Ki did it give?
**A.** 0.1 µM

**Q.** With `c1ccc(-c2cc(CCCC3CCCCN3)c3ccccc3n2)cc1` (stereo not drawn) [Example 30, 4-[3-(2-piperidyl)-propyl]-2-phenyl-quinoline] as the molecule, how does the Ki read?
**A.** 2.7 µM

**Q.** How did the Ki turn out when `c1ccc(-c2cc(CCC3CCNC3)c3ccccc3n2)cc1` (stereo not drawn) [Example 29, 2-phenyl-4-[2-(3-pyrrolidinyl)-ethyl]-quinoline] was run?
**A.** 0.7 µM

**Q.** Which Ki does the source give for `c1ccc(-c2cc(CCC3CCCCN3)c3ccccc3n2)cc1` (stereo not drawn) [Example 22, 2-phenyl-4-[2-(2-piperidyl)-ethyl]-quinoline] here?
**A.** 0.6 µM

**Q.** How did the Ki turn out when `COc1ccc2nccc(C(=O)CCC3CCCNC3)c2c1` (stereo not drawn) [Example 1, 1-[4-(6-methoxy)quinolyl]-3-(3-piperidyl)-1-propanone] was run?
**A.** 2 µM

**Q.** `CN1CCCC(CCCc2cc(-c3ccccc3)nc3ccccc23)C1` (stereo not drawn) [Example 24, 4-{3-[3-(1-methyl)piperidyl]-propyl}-2-phenyl-quinoline] was tested. Which Ki did it give?
**A.** 3 µM

The molecules below were run against Cerebral Binding Sites of the Benzodiazepines (assay: displacement of tritiated Diazepam (3H Diazepam) from cerebral benzodiazepine binding sites (method of Mohler and Coll.)). Details: read-out: KD, constant of affinity of 3H Diazepam; constant used in the Ki formula.

**Q.** With `CN1C(=O)CN=C(c2ccccc2)c2cc(Cl)ccc21` [^3 H Diazepam] as the molecule, how does the Kd read?
**A.** 2.74 µM
